One test has as its system Candida albicans. The experiment in a line: Antimycotic in vitro activity (series dilution test), Candida albicans. The format is cell-based. Conditions: meat extract/glucose broth, 5×10^4 germs/ml, 20° C., 24 to 96 hours, read-out: MIC values in Y/ml of nutrient medium for Candida albicans. How it is done:
(§1) Antimycotic in vitro activity
(§2) The in vitro tests were carried out in a series dilution test using germ inocula of on average 5×10^4 germs/ml of substrate. The nutrient medium used was (a) for dermatophytes and moulds: Sabourand's milieu d'epreuve, and (b) for yeasts: meat extract/glucose broth.
(§3) The incubation temperature was 20° C. and the incubation time was 24 to 96 hours for yeasts and 96 hours for dermatophytes and moulds.

The test system of the next test is Trichophyton mentagr. The experiment in a line: Antimycotic in vitro activity (series dilution test), Trichophyton mentagr. In kind it is cell-based, Trichophyton mentagrophytes. Particulars: Sabourand's milieu d'epreuve, 5×10^4 germs/ml, 20° C., 96 hours, read-out: MIC values in Y/ml of nutrient medium for Trichophyton mentagr. Here is the method: as §1, §2, §3

Another test has as its system Candida. Kind of test: Antimycotic in vivo action (oral) in candidosis of mice. The arrangement: species or system mice of the SPF-CF1 type. Particulars: 10-50 mg/kg one hour before and seven hours after i.v. infection. How it is done: Antimycotic in vivo action (oral) in candidosis of mice
Mice of the SPF-CF1 type were infected intravenously with 1-2×10^6 logarithmically growing Candida cells, suspended in physiological saline solution. The animals were treated orally one hour before and seven hours after the infection, with in each case 10-50 mg/kg of body weight of the products.
Untreated animals died 3 to 6 days after infection. The survival rate on the 6th day after infection was about 5% in the case of untreated animals.

Test [1] concerns dermatophytes, moulds and yeasts. The experiment in a line: Antimycotic in vitro activity (series dilution test), overall. In kind it is cell-based. How it is done:
as §1, §2, §3

Another test relates to Torulopsis glabrata. The experiment in a line: Antimycotic in vitro activity (series dilution test), Torulopsis glabrata. The format is cell-based. Particulars: Nakaseomyces glabratus; meat extract/glucose broth; 5×10^4 germs/ml; 20° C.; 24 to 96 hours; read-out: MIC values in Y/ml of nutrient medium for Torulopsis glabrata. How it is done: as §1, §2, §3
Another test has as its system Microsporum canis. The experiment in a line: Antimycotic in vitro activity (series dilution test), Microsporum canis. Conditions: Sabourand's milieu d'epreuve, 5×10^4 germs/ml, 20° C., 96 hours, read-out: MIC values in Y/ml of nutrient medium for Microsporum canis. In kind it is cell-based. Here is the method:
as §1, §2, §3

A further test has as its system Aspergillus fumigatus. Kind of test: Antimycotic in vitro activity (series dilution test), Aspergillus fumigatus. Conditions: Sabourand's milieu d'epreuve, 5×10^4 germs/ml, 20° C., 96 hours, read-out: MIC values in Y/ml of nutrient medium for Aspergillus fumigatus. The format is cell-based. Here is the method: as §1, §2, §3

Values after ≈ are worked out from the molar mass of the structure shown.

On to `CC(C)(Cc1ccc(Cl)cc1Cl)C(O)(Cn1cncn1)Cn1cncn1` [Example 1, 4-(2,4-dichlorophenyl)-3,3-dimethyl-2-(1,2,4-triazol-1-yl-methyl)-1-(1,2,4-triazol-1-yl)-2-butanol], for which the MIC with Candida albicans was 32 µg/mL (≈ 81 µM); with Trichophyton mentagr. it was 1 µg/mL (≈ 2.53 µM); in the test on Torulopsis glabrata, 64 µg/mL (≈ 162 µM); in the test with Microsporum canis, 32 µg/mL (≈ 81 µM); with Aspergillus fumigatus, 32 µg/mL (≈ 81 µM). The “Action (survivors on the 6th day after infection)” value in the test with Candida is “+++++ (very good action=90% survivors on the 6th day after infection)”. Besides, in the test with Candida, the “action in candidosis of mice (in words)” value is “good to very good action”. For the same compound, the “antimycotic action in vitro (in words)” value in test [1] is “good antimycotic action”.
In the case of `CC(C)(Cc1ccc(Cl)cc1)C(O)(Cn1cncn1)Cn1cncn1` [Example 2], the MIC is 4 µg/mL (≈ 11.1 µM) in the test with Candida albicans; 1 µg/mL (≈ 2.77 µM) in the test with Trichophyton mentagr.; 16 µg/mL (≈ 44.3 µM) with Torulopsis glabrata; 4 µg/mL (≈ 11.1 µM) in the test with Microsporum canis; 4 µg/mL (≈ 11.1 µM) in the test with Aspergillus fumigatus. Moreover, in the test with Candida, the “Action (survivors on the 6th day after infection)” value is “+++++ (very good action=90% survivors on the 6th day after infection)”. Also, the “action in candidosis of mice (in words)” value in the test on Candida is given as “good to very good action”. The “antimycotic action in vitro (in words)” value in test [1] is given as “good antimycotic action”.
As for `Cc1ccc(CC(C)(C)C(O)(Cn2cncn2)Cn2cncn2)cc1` [Example 3], the MIC in the test on Candida albicans is 16 µg/mL (≈ 47 µM); with Trichophyton mentagr., 1 µg/mL (≈ 2.94 µM); with Torulopsis glabrata, 64 µg/mL (≈ 188 µM); with Microsporum canis, 8 µg/mL (≈ 23.5 µM); with Aspergillus fumigatus it was 4 µg/mL (≈ 11.7 µM). Further, the “Action (survivors on the 6th day after infection)” value with Candida is “++++ (good action=80% survivors on the 6th day after infection)”. The “action in candidosis of mice (in words)” value in the test with Candida was “good to very good action”. In addition, the “antimycotic action in vitro (in words)” value in test [1] is on record as “good antimycotic action”.
Take `CC(C)(CSc1ccc(Cl)cc1)C(O)(Cn1cncn1)Cn1cncn1` [Example 5]: the MIC worked out at 32 µg/mL (≈ 81.4 µM) in the test with Candida albicans; 1 µg/mL (≈ 2.55 µM) with Trichophyton mentagr.; 64 µg/mL (≈ 163 µM) with Torulopsis glabrata; 32 µg/mL (≈ 81.4 µM) in the test on Microsporum canis; 32 µg/mL (≈ 81.4 µM) in the test with Aspergillus fumigatus. In the test on Candida, the “Action (survivors on the 6th day after infection)” value is reported as “++++ (good action=80% survivors on the 6th day after infection)”. Further, in the test with Candida, the “action in candidosis of mice (in words)” value is listed as “good to very good action”. Moreover, the “antimycotic action in vitro (in words)” value in test [1] was “good antimycotic action”.
As to `CC(C)(Oc1ccc(Cl)cc1)C(O)(Cn1cncn1)Cn1cncn1` [Example 6], the MIC in the test on Candida albicans was 4 µg/mL (≈ 11 µM); with Trichophyton mentagr., 32 µg/mL (≈ 88.2 µM); in the test on Torulopsis glabrata, 16 µg/mL (≈ 44.1 µM); in the test with Aspergillus fumigatus it was 64 µg/mL (≈ 176 µM). The “Action (survivors on the 6th day after infection)” value in the test with Candida is “++++ (good action=80% survivors on the 6th day after infection)”. For the same compound, in the test on Candida, the “action in candidosis of mice (in words)” value was “good to very good action”. Also, in test [1], the “antimycotic action in vitro (in words)” value is listed as “good antimycotic action”.
Consider `CC(C)(Cc1ccc(Cl)cc1)C(O)(Cn1ccnc1)Cn1cncn1` (centres unmarked) [Example 8], for which, in the test with Candida, the “Action (survivors on the 6th day after infection)” value was “++++ (good action=80% survivors on the 6th day after infection)” and the “action in candidosis of mice (in words)” value is “good to very good action”.
